Earlier results on 4 molecules are cited in patent US20260345588A1, “COMBINED AGENTS WITH SYNERGISTIC EFFECTS AGAINST GLIOMAS” (Eberhard Karls Universitaet Tuebingen Medizinische Fakultaet, priority 2023, published 2026).

Usually IC50 stands for the midpoint of a concentration-inhibition curve.

Some results are limits rather than exact numbers.

The conditions of series [1]: use of tideglusib.
A further series concerns Alzheimer's disease. The note with it: phase-IIa clinical trial; treatment discontinued.
The subject of a further series is EHMT1. The conditions noted are these: EHMT1 peptide.
Another series concerns EHMT2. The note with it: EHMT2 peptide.
The subject of the next series is Pim1. The conditions noted are these: ATP competitive inhibitor; cell-free assay.
The next series concerns Pim2. The note with it: Pim1 versus Pim2.
The test system of the next series is Pim3. The conditions noted are these: Pim1 versus Pim3.
A further series deals with Fit3. The note with it: in words.
The subject of the next series is haspin. The note with it: in words.

`O=c1sn(-c2cccc3ccccc23)c(=O)n1Cc1ccccc1` [Tideglusib]: the adverse reactions result in series [1] was “mild-moderate adverse reactions, which included transient increases in serum creatine kinase, ALT—or gGT—diarrhea, nausea, cough, fatigue, and headache”. Moreover, the “clinical efficacy in Alzheimer's disease” value in the series on Alzheimer's disease is given as “lack of efficacy”.

In the case of `Cn1nnc2c(C(N)=O)ncn2c1=O` [Temozolomide], the injection-site reactions entry (people receiving the solution for infusion) was “injection-site reactions, such as pain, irritation, itching, warmth, swelling and redness, as well as bruising”. Also, where the note is “people treated with temozolomide”, the side effects result was “nausea (feeling sick), vomiting, constipation, loss of appetite, alopecia (hair loss), headache, fatigue (tired-ness), convulsions (fits), rash, neutropenia or lymphopenia (low white-blood-cell counts), and thrombocytopenia (low blood platelet counts)”.

As to `CNCc1cnn(-c2cc(Nc3nc(C)cc(NC)n3)ccc2OC)c1` [EHMT 2-IN-1], the IC50 with EHMT1, in the series with EHMT2 and with cellular EHMT2 was < 100 nM throughout.

As to `CN1CCC(CNc2ccc3ncc(-c4cccc(OC(F)(F)F)c4)n3n2)CC1` [SGI-1776], the IC50 with Pim1 was […]. Also, the “fold selective versus Pim2” value in the series on Pim2 is reported as […]. The “fold selective versus Pim3” value in the series with Pim3 is reported as […]. Also, in the series with Fit3, the “potency to Fit3” value is on record as “potent”. The potency to haspin result in the series on haspin is listed as “potent”.
